The structures appear in SMILES notation.

These results are taken from patent publication US11173151B2, “Substituted triazole derivatives and uses thereof” (BAYER AKTIENGESELLSCHAFT, priority 2017, dated 2021).

The target in one assay is T1, human V1a receptor (Homo sapiens, UniProt P37288).
T1 construct: expressed in transfected cells; host or cells: CHO K1 (ATCC), also stably transfected with a modified aequorin
Nature of the assay: Cellular in vitro assay for determining vasopressin receptor activity, V1a receptor cell line (CHO, aequorin luminescence). To be noted: for IC50: CHO cell line transfected with human V1a receptor, [Arg]-vasopressin at EC50 concentration, read-out: IC50 hV1a; for ratio IC50 hV2/hV1a: selectivity ratio IC50 hV2 / IC50 hV1a. In kind it is cell-based. The method in brief: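 Cells were plated the day before in medium containing 5 μg/ml coelenterazine and kept at 37° C. Compounds at various concentrations were then added for 10 minutes. Next, [Arg]-vasopressin at EC50 was applied and light output recorded at once, yielding IC50.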

For a further assay, the target named is T2, human V2 receptor (Homo sapiens, UniProt P30518).
T2 construct: expressed in transfected cells; host or cells: CHO K1 (ATCC) expressing firefly luciferase under a CRE-responsive promoter
The assay can be described thus: Cellular in vitro assay for determining vasopressin receptor activity, V2 receptor cell line (CHO, CRE-luciferase). In kind it is cell-based. The conditions noted are these: CHO cell line transfected with human V2 receptor; [Arg8]-vasopressin at EC50 concentration, 3 hours; read-out: IC50 hV2.

T1 sequence (P37288 whole entry): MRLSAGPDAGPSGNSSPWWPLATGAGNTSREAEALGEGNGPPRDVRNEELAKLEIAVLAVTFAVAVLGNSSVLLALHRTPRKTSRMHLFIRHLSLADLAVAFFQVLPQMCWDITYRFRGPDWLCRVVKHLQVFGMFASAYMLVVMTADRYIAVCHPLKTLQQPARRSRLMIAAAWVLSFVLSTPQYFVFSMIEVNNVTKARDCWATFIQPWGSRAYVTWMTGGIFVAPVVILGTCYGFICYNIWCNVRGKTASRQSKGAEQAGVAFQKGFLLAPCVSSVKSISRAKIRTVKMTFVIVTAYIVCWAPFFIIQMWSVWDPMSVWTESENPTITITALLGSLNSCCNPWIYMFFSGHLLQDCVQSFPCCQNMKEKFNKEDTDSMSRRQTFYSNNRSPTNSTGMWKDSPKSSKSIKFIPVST
T2 sequence (P30518 whole entry): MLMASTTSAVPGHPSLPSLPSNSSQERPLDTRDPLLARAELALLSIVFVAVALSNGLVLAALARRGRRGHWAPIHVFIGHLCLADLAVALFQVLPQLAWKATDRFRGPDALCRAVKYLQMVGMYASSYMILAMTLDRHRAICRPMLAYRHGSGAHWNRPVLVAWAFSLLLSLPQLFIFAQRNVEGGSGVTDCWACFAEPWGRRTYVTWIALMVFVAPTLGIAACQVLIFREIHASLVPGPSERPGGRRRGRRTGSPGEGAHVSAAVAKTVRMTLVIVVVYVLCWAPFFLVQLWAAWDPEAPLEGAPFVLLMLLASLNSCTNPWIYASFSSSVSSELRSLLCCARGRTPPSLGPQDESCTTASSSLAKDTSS

What is called IC50 is the point on the concentration scale where inhibition reaches its midpoint. For `CC1(CNC(=O)c2ccccc2-n2cnc(Cn3nc(-c4ccc(Cl)cc4)n(C[C@H](O)C(F)(F)F)c3=O)n2)COC1` [Example 188, 2-[3-({3-(4-Chlorophenyl)-5-oxo-4-[(2S)-3,3,3-trifluoro-2-hydroxypropyl]-4,5-dihydro-1H-1,2,4-triazol-1-yl}ylmethyl)-1H-1,2,4-triazol-1-yl]-N-[(3-methyloxetan-3-yl)methyl]benzamide], on human V1a receptor, the IC50 worked out at 0.00683 µM and the “ratio IC50 hV2/hV1a” value came out at 83.2. The IC50 at human V2 receptor was determined as 0.568 µM.

Take `NC(=O)C1CN(C(=O)c2ccccc2-n2cnc(Cn3nc(-c4ccc(Cl)cc4)n(C[C@H](O)C(F)(F)F)c3=O)n2)C1` [Example 189, 1-{2-[3-({3-(4-Chlorophenyl)-5-oxo-4-[(2S)-3,3,3-trifluoro-2-hydroxypropyl]-4,5-dihydro-1H-1,2,4-triazol-1-yl}methyl)-1H-1,2,4-triazol-1-yl]benzoyl}azetidine-3-carboxamide]: the IC50 at human V1a receptor amounted to 0.0608 µM; at human V2 receptor it was 3.65 µM. In addition, the “ratio IC50 hV2/hV1a” value on human V1a receptor is 60.1.

For the compound `O=C1NCC2(CN(C(=O)c3ccccc3-n3cnc(Cn4nc(-c5ccc(Cl)cc5)n(C[C@H](O)C(F)(F)F)c4=O)n3)C2)N1` [Example 190, 2-{2-[3-({3-(4-Chlorophenyl)-5-oxo-4-[(2S)-3,3,3-trifluoro-2-hydroxypropyl]-4,5-dihydro-1H-1,2,4-triazol-1-yl}methyl)-1H-1,2,4-triazol-1-yl]benzoyl}-2,5,7-triazaspiro[3.4]octan-6-one], on human V1a receptor, the concentration for half-maximal inhibition (IC50) worked out at 0.3 µM and the “ratio IC50 hV2/hV1a” value is recorded as 23.5. The IC50 at human V2 receptor is 7.05 µM.

As for `NC(=O)[C@H]1CCCN1C(=O)c1ccccc1-n1cnc(Cn2nc(-c3ccc(Cl)cc3)n(C[C@H](O)C(F)(F)F)c2=O)n1` [Example 194, 1-{2-[3-({3-(4-Chlorophenyl)-5-oxo-4-[(2S)-3,3,3-trifluoro-2-hydroxypropyl]-4,5-dihydro-1H-1,2,4-triazol-1-yl}methyl)-1H-1,2,4-triazol-1-yl]benzoyl}-D-prolinamide], on human V1a receptor, the IC50 worked out at 0.0635 µM and the “ratio IC50 hV2/hV1a” value turned out to be 46.5. Also, on human V2 receptor, the half-maximal inhibitory concentration (IC50) turned out to be 2.95 µM.

For the compound `NC(=O)[C@@H]1CCCN1C(=O)c1ccccc1-n1cnc(Cn2nc(-c3ccc(Cl)cc3)n(C[C@H](O)C(F)(F)F)c2=O)n1` [Example 195, 1-{2-[3-({3-(4-Chlorophenyl)-5-oxo-4-[(2S)-3,3,3-trifluoro-2-hydroxypropyl]-4,5-dihydro-1H-1,2,4-triazol-1-yl}methyl)-1H-1,2,4-triazol-1-yl]benzoyl}-L-prolinamide], at human V1a receptor, the IC50 was 0.104 µM and the “ratio IC50 hV2/hV1a” value was 23.0. Further, the IC50 on human V2 receptor stood at 2.39 µM.

As to `NC(=O)[C@@H]1CC(F)(F)CN1C(=O)c1ccccc1-n1cnc(Cn2nc(-c3ccc(Cl)cc3)n(C[C@H](O)C(F)(F)F)c2=O)n1` [Example 197, 1-{2-[3-({3-(4-Chlorophenyl)-5-oxo-4-[(2S)-3,3,3-trifluoro-2-hydroxypropyl]-4,5-dihydro-1H-1,2,4-triazol-1-yl}methyl)-1H-1,2,4-triazol-1-yl]benzoyl}-4,4-difluoro-L-prolinamide], on human V1a receptor, the IC50 was 0.0495 µM and the “ratio IC50 hV2/hV1a” value is reported as 140.4. In addition, the IC50 on human V2 receptor worked out at 6.95 µM.

As to `NC(=O)[C@H]1CC(F)(F)CN1C(=O)c1ccccc1-n1cnc(Cn2nc(-c3ccc(Cl)cc3)n(C[C@H](O)C(F)(F)F)c2=O)n1` [Example 198, 1-{2-[3-({3-(4-Chlorophenyl)-5-oxo-4-[(2S)-3,3,3-trifluoro-2-hydroxypropyl]-4,5-dihydro-1H-1,2,4-triazol-1-yl}methyl)-1H-1,2,4-triazol-1-yl]benzoyl}-4,4-difluoro-D-prolinamide], the IC50 at human V1a receptor came out at 0.022 µM; at human V2 receptor it was 5.4 µM. Further, at human V1a receptor, the “ratio IC50 hV2/hV1a” value came to 245.5.

For `NC(=O)[C@@H]1CCN(C(=O)c2ccccc2-n2cnc(Cn3nc(-c4ccc(Cl)cc4)n(C[C@H](O)C(F)(F)F)c3=O)n2)C1` [Example 199, (3R)-1-{2-[3-({3-(4-Chlorophenyl)-5-oxo-4-[(2S)-3,3,3-trifluoro-2-hydroxypropyl]-4,5-dihydro-1H-1,2,4-triazol-1-yl}methyl)-1H-1,2,4-triazol-1-yl]benzoyl}pyrrolidine-3-carboxamide], the IC50 at human V1a receptor is 0.0365 µM; on human V2 receptor, 2.42 µM. Further, the “ratio IC50 hV2/hV1a” value on human V1a receptor was determined as 66.4.

For `NC(=O)[C@H]1CCN(C(=O)c2ccccc2-n2cnc(Cn3nc(-c4ccc(Cl)cc4)n(C[C@H](O)C(F)(F)F)c3=O)n2)C1` [Example 200, (3S)-1-{2-[3-({3-(4-Chlorophenyl)-5-oxo-4-[(2S)-3,3,3-trifluoro-2-hydroxypropyl]-4,5-dihydro-1H-1,2,4-triazol-1-yl}methyl)-1H-1,2,4-triazol-1-yl]benzoyl}pyrrolidine-3-carboxamide], on human V1a receptor, the IC50 amounted to 0.0112 µM and the “ratio IC50 hV2/hV1a” value was 153.3. The IC50 on human V2 receptor worked out at 1.73 µM.

As for `CC1=NN=C(C)C1NC(=O)c1ccccc1-n1cnc(Cn2nc(-c3ccc(Cl)cc3)n(C[C@H](O)C(F)(F)F)c2=O)n1` [Example 201, 2-[3-({3-(4-Chlorophenyl)-5-oxo-4-[(2S)-3,3,3-trifluoro-2-hydroxypropyl]-4,5-dihydro-1H-1,2,4-triazol-1-yl}methyl)-1H-1,2,4-triazol-1-yl]-N-(3,5-dimethyl-4H-pyrazol-4-yl)benzamide], on human V1a receptor, the 50% inhibitory concentration (IC50) was determined as 0.0012 µM and the “ratio IC50 hV2/hV1a” value stood at 3125.0. The IC50 on human V2 receptor worked out at 3.75 µM.

With `O=C(NCc1cccc(F)c1F)c1ccccc1-n1cnc(Cn2nc(-c3ccc(Cl)cc3)n(C[C@H](O)C(F)(F)F)c2=O)n1` [Example 203, 2-[3-({3-(4-Chlorophenyl)-5-oxo-4-[(2S)-3,3,3-trifluoro-2-hydroxypropyl]-4,5-dihydro-1H-1,2,4-triazol-1-yl}methyl)-1H-1,2,4-triazol-1-yl]-N-(2,3-difluorobenzyl)benzamide], the values for the IC50 at human V1a receptor and at human V2 receptor were 0.00835 µM and 0.225 µM, respectively. Moreover, the “ratio IC50 hV2/hV1a” value on human V1a receptor came to 26.9.

As for `Nc1ccc(NC(=O)c2ccccc2-n2cnc(Cn3nc(-c4ccc(Cl)cc4)n(C[C@H](O)C(F)(F)F)c3=O)n2)cc1` [Example 205, N-(4-Aminophenyl)-2-[3-({3-(4-chlorophenyl)-5-oxo-4-[(2S)-3,3,3-trifluoro-2-hydroxypropyl]-4,5-dihydro-1H-1,2,4-triazol-1-yl}methyl)-1H-1,2,4-triazol-1-yl]benzamide], at human V1a receptor, the IC50 stood at 0.00058 µM and the “ratio IC50 hV2/hV1a” value came to 321.7. The IC50 on human V2 receptor is 0.185 µM.

As to `Cn1nccc1CNC(=O)c1ccccc1-n1cnc(Cn2nc(-c3ccc(Cl)cc3)n(C[C@H](O)C(F)(F)F)c2=O)n1` [Example 206, 2-[3-({3-(4-Chlorophenyl)-5-oxo-4-[(2S)-3,3,3-trifluoro-2-hydroxypropyl]-4,5-dihydro-1H-1,2,4-triazol-1-yl}methyl)-1H-1,2,4-triazol-1-yl]-N-[(1-methyl-1H-pyrazol-5-yl)methyl]benzamide], on human V1a receptor, the half-inhibitory concentration (IC50) turned out to be 0.00145 µM and the “ratio IC50 hV2/hV1a” value amounted to 575.9. The IC50 on human V2 receptor came out at 0.835 µM.

As to `O=C(NCc1cc(F)ccc1F)c1ccccc1-n1cnc(Cn2nc(-c3ccc(Cl)cc3)n(C[C@H](O)C(F)(F)F)c2=O)n1` [Example 207, 2-[3-({3-(4-chlorophenyl)-5-oxo-4-[(2S)-3,3,3-trifluoro-2-hydroxypropyl]-4,5-dihydro-1H-1,2,4-triazol-1-yl}methyl)-1H-1,2,4-triazol-1-yl]-N-(2,5-difluorobenzyl)benzamide], at human V1a receptor, the IC50 worked out at 0.00535 µM and the “ratio IC50 hV2/hV1a” value is given as 57.0. Also, on human V2 receptor, the concentration for half-maximal inhibition (IC50) is 0.305 µM.

`Cc1ccc(CNC(=O)c2ccccc2-n2cnc(Cn3nc(-c4ccc(Cl)cc4)n(C[C@H](O)C(F)(F)F)c3=O)n2)o1` [Example 209, 2-[3-({3-(4-Chlorophenyl)-5-oxo-4-[(2S)-3,3,3-trifluoro-2-hydroxypropyl]-4,5-dihydro-1H-1,2,4-triazol-1-yl}methyl)-1H-1,2,4-triazol-1-yl]-N-[(5-methylfuran-2-yl)methyl]benzamide]: on human V1a receptor, the half-inhibitory concentration (IC50) is 0.00565 µM and the “ratio IC50 hV2/hV1a” value is on record as 23.0. Also, at human V2 receptor, the IC50 amounted to 0.13 µM.

Consider `Cn1nccc1NC(=O)c1ccccc1-n1cnc(Cn2nc(-c3ccc(Cl)cc3)n(C[C@H](O)C(F)(F)F)c2=O)n1` [Example 210, 2-[3-({3-(4-Chlorophenyl)-5-oxo-4-[(2S)-3,3,3-trifluoro-2-hydroxypropyl]-4,5-dihydro-1H-1,2,4-triazol-1-yl}methyl)-1H-1,2,4-triazol-1-yl]-N-(1-methyl-1H-pyrazol-5-yl)benzamide], for which, at human V1a receptor, the IC50 turned out to be 0.00165 µM and the “ratio IC50 hV2/hV1a” value came to 457.6. In addition, the IC50 on human V2 receptor is 0.755 µM.

Consider `O=C(Nc1ccc(F)cn1)c1ccccc1-n1cnc(Cn2nc(-c3ccc(Cl)cc3)n(C[C@H](O)C(F)(F)F)c2=O)n1` [Example 211, 2-[3-({3-(4-Chlorophenyl)-5-oxo-4-[(2S)-3,3,3-trifluoro-2-hydroxypropyl]-4,5-dihydro-1H-1,2,4-triazol-1-yl}methyl)-1H-1,2,4-triazol-1-yl]-N-(5-fluoropyridin-2-yl)benzamide], for which, on human V1a receptor, the IC50 worked out at 0.00665 µM and the “ratio IC50 hV2/hV1a” value was 25.6. Also, at human V2 receptor, the IC50 is 0.17 µM.

Take `O=C(Nc1cc(O)[nH]n1)c1ccccc1-n1cnc(Cn2nc(-c3ccc(Cl)cc3)n(C[C@H](O)C(F)(F)F)c2=O)n1` [Example 212, 2-[3-({3-(4-Chlorophenyl)-5-oxo-4-[(2S)-3,3,3-trifluoro-2-hydroxypropyl]-4,5-dihydro-1H-1,2,4-triazol-1-yl}methyl)-1H-1,2,4-triazol-1-yl]-N-(5-hydroxy-1H-pyrazol-3-yl)benzamide]: at human V1a receptor, the IC50 is 0.0235 µM and the “ratio IC50 hV2/hV1a” value is reported as 24.5. In addition, the half-inhibitory concentration (IC50) on human V2 receptor was 0.575 µM.
